Measurements published in article PMC7927146, “Discovery of an Orally Available Diazabicyclooctane Inhibitor (ETX0282) of Class A, C, and D Serine β-Lactamases” (Journal of Medicinal Chemistry, 2020).
Where a name gives a salt, the structure may show the parent alone. Blank lines part the entries; values can stand above or below the molecule they belong to.

Assays:
log D = format: physicochemical
[1] = cited from earlier work
E. coli ARC2687 = assay: Neutropenic mouse thigh infection model; format: in vivo; settings: CPDP alone, po, q6h
E. coli TEM-1 (Class A) = E. coli TEM-1 (Class A) (Escherichia coli, UniProt P62593); assay: β-lactamase inhibition, nitrocefin hydrolysis progress curves; format: biochemical; settings: supplement CSV; incubation time not given, values correspond to 60 min
[2] = biological target: class A, C, and D serine β-lactamases; assay: β-lactamase inhibition, statements over the enzyme panel; format: biochemical; settings: 60 min; TEM-1, AmpC, OXA-48; read-out: IC50 against β-lactamases, all values
Procedure: The spectrum of class A, C, and D β-lactamase inhibition by ETX1317 was evaluated by measuring its ability to protect the β-lactamase substrate nitrocefin from degradation using previously described methods.[13]
The methods used to measure inhibition of β-lactamases were the same as those described in the supplement to Durand-Reville et al.[13] Reaction progress curves at 490 nm for hydrolysis of the chromogenic β-lactamase substrate nitrocefin (SynGene, Bangalore, India) at 100 μM were measured for a range of inhibitor concentrations in 0.1 M sodium phosphate (pH 7.0), 10 mM NaHCO3, and 0.005% Triton X-100 at ambient temperature using a Spectramax absorbance plate reader (Molecular Devices, Sunnyvale, CA). The set of 12 progress curves were fit globally to a second-order kinetic model of enzyme inactivation. […] The second-order inactivation rate constant kinact/Ki was calculated from the set of progress curves using Global Kinetic Explorer (Kintek) as previously described.[13]

[3] = tested on: E. coli ARC3627 (OXA-1, AmpC, CTX-M-15, TEM-1); assay: Broth microdilution MIC (BLI alone, cefpodoxime, cefpodoxime + BLI); format: cell-based; settings: for MIC: Escherichia coli
[4] = tested on: K. pneumoniae ARC561 (OKP-6, AmpC, OXA-2, SHV-18) ATCC700603; assay: as above; format: cell-based; settings: for MIC: Klebsiella pneumoniae, ATCC700603
[5] = biological target: P. aeruginosa AmpC (Class C) (Pseudomonas aeruginosa, UniProt P24735); assay: β-lactamase inhibition, nitrocefin hydrolysis progress curves; format: biochemical
[6] = Buffer stability of ester prodrugs; format: physicochemical; settings: potassium phosphate buffer pH 7.4, 37 °C; for Half-life, pH 7.4 buffer: 10 μM
Procedure: Buffer stability (potassium phosphate buffer, pH 7.4) was evaluated using the same protocol but without adding the S9 subcellular fractions.

[7] = Stability in intestinal S9 fraction; format: in vitro ADME, rat; settings: for half-life at 10 μM: rat, intestinal S9 fraction, pH 7.4
Procedure: (§1) Liver and intestinal S9 subcellular fractions (Xenotech) from rat and human tissue were diluted to a protein concentration of 0.8 mg/mL in 100 mM potassium phosphate buffer, pH 7.4, and preincubated in a 37 °C water bath for 5 min prior to addition of 10 μM (final) of compound of interest. Serial aliquots were removed at 0, 2, 5, 10, 20, 40, and 60 min and quenched in acetonitrile with internal standard prior to LC/MS/MS[30] to determine concentrations of prodrug. First order degradation half-lives were determined from the slope of the log–linear plots of the depletion data.

[8] = Stability in liver S9 fraction; format: in vitro ADME, rat; settings: 37 °C; for Half-life, Rat liver S9: 0.8 mg/mL protein, 10 μM
Procedure: as §1

[9] = Stability in intestinal S9 fraction; format: in vitro ADME, human; settings: for half-life at 10 μM: human, intestinal S9 fraction, pH 7.4
Procedure: as §1

[10] = Stability in liver S9 fraction; format: in vitro ADME, human; settings: 37 °C; for Half-life, Human liver S9: 0.8 mg/mL protein, 10 μM
Procedure: as §1

[11] = 14-day GLP toxicology study, daily oral administration; settings: in vivo
Procedure: (§2) The safety of ETX0282 was investigated with a 14-day toxicology study under Good Laboratory Practice (GLP) in rats and dogs following daily oral administration. The doses of 500 mg kg^–1 day^–1 and 400 mg kg^–1 day^–1 were established as the NOAELs (no observed adverse effect level) for rats and dogs, respectively.

[12] = Phase 1 clinical trials in healthy volunteers (NCT03491748); format: in vivo, human; settings: alone or in combination with cefpodoxime proxetil
Procedure: as §2

[13] = Intravenous and oral pharmacokinetics in rats; settings: rat, 10 mg/kg equivalent dose of ETX1317
[14] = biological target: K. pneumoniae OXA-48 (Class D) (Klebsiella pneumoniae, UniProt Q6XEC0); assay: biochemical
[15] = tested on: MDR Enterobacterales clinical isolates; assay: Broth microdilution MIC, statements over the isolate panel; format: cell-based; settings: read-out: MIC across the clinical isolates of Table 6
Procedure: (§3) The potency and spectrum of β-lactamase inhibition by ETX1317 supported further antibacterial profiling in combination with β-lactams against relevant Gram-negative clinical isolates. Approved penicillins and cephalosporins administered orally were evaluated, using not only MIC as a criterion but also oral bioavailability, approved dose levels, and unbound plasma exposures. Cefpodoxime (CPD) emerged as the lead β-lactam candidate.[30] Its approved use as an orally bioavailable proxetil ester prodrug to treat UTI infections was also aligned with our potential target product profile. A fixed 1:2 ratio of cefpodoxime/ETX1317 was utilized as the testing paradigm for antimicrobial susceptibility. […] The addition of ETX1317 to CPD restored its activity to ≤0.5 μg/mL across all Enterobacterales isolates tested, including the CRE strains (identified by “a” in Table 6).
(§4) The broth microdilution susceptibility testing was conducted according to CLSI[39] using CAMHB. Durlobactam and avibactam were synthesized at Entasis Therapeutics. Cefpodoxime (catalog no. J66225) was purchased from Alfa Aesar.

[16] = tested on: E. coli ARC2687 (CTX-M-14, AmpC); assay: Broth microdilution MIC; format: cell-based; settings: Escherichia coli, agent alone
Procedure: as §3, §4

[17] = 0.8 mg/mL protein, 10 μM, 37 °C
[18] = species not given in the sentence, read-out: t1/2, stability to intestinal esterases

Sequence of P. aeruginosa AmpC (Class C) (P24735 27-397): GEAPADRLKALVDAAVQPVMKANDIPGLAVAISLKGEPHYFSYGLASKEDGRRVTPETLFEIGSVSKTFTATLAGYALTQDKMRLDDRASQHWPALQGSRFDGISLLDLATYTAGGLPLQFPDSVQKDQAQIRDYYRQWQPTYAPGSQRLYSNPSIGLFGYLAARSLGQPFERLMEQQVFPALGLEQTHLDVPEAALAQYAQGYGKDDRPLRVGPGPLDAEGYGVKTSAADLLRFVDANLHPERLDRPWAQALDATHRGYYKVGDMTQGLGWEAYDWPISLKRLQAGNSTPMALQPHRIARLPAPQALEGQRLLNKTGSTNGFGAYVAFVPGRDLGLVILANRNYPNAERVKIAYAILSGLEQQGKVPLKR
Sequence of E. coli TEM-1 (Class A) (P62593 24-286 limits assumed): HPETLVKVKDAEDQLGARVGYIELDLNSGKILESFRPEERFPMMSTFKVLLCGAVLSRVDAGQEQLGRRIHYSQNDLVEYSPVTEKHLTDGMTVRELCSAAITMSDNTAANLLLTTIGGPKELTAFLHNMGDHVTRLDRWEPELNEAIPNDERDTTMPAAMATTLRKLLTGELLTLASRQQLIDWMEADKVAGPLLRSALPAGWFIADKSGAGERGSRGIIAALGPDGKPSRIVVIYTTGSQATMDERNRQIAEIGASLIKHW
Sequence of K. pneumoniae OXA-48 (Class D) (Q6XEC0 23-265, looked up): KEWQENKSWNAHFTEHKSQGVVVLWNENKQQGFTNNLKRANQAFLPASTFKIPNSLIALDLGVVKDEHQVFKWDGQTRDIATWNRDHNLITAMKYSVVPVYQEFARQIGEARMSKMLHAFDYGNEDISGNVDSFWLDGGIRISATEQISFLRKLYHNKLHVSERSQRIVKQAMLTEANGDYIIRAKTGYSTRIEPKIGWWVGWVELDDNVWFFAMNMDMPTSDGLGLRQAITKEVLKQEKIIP

logD (log D): < 0
Compound: NC(=O)[C@@H]1CC[C@@H]2CN1C(=O)N2OS(=O)(=O)O [Avibactam, avibactam]
oral bioavailability F [1]: < 10%

Compound: COCC1=C(C(=O)OC(C)OC(=O)OC(C)C)N2C(=O)[C@@H](NC(=O)/C(=N\OC)c3csc(N)n3)[C@H]2SC1 (stereo partly drawn) [CPDP, cefpodoxime proxetil]
efficacy in thigh model (E. coli ARC2687): not efficacious

Compound: CC1=C[C@@H]2CN(C(=O)N2OC(F)(F)C(=O)O)[C@@H]1C(N)=O [Compound 2]
IC50 (E. coli TEM-1 (Class A)): 0.001 µM
IC50 [2]: < 15 nM

Compound: CC1=C[C@@H]2CN(C(=O)N2O[C@H](F)C(=O)O)[C@@H]1C(N)=O [Compound 4]
IC50 (E. coli TEM-1 (Class A)): 0.001 µM
fold reduction of cefpodoxime MIC compared to the MIC with no BLI ([3]; E. coli ARC3627, BLI 4 μg/mL): greater than 128 fold
fold reduction of cefpodoxime MIC compared to the MIC with no BLI ([4]; K. pneumoniae ARC561, BLI 4 μg/mL): greater than 128 fold

Compound: CC1=C[C@@H](C(N)=O)N2C[C@@H]1N(O[C@H](F)C(=O)O)C2=O [Compound 13, (2R)-2-(((2S,5R)-2-Carbamoyl-4-methyl-7-oxo-1,6-diazabicyclo[3.2.1]oct-3-en-6-yl)oxy)-2-fluoroacetic Acid Lithium Salt]
IC50 (E. coli TEM-1 (Class A)): 0.003 µM
IC50 ([5]; IC50 (µM) P. aeruginosa AmpC (Class C), supplement CSV, incubation time not given, values correspond to 60 min): 0.16 µM
MIC [4]: 16 µg/mL

MIC [3]: 0.5 µg/mL
Compound: CC1=C[C@@H](C(N)=O)N2C[C@@H]1N(O[C@@H](F)C(=O)O)C2=O [Compound 14]

Compound: CCOC(=O)[C@@H](F)ON1C(=O)N2C[C@H]1C=C(C)[C@H]2C(N)=O [Compound 15]
Half-life, pH 7.4 buffer [6]: 41 min
Half-life, Rat intestinal S9 [7, 17]: 39 min
Half-life, Rat liver S9 [8]: 4.4 min
Half-life, Human intestinal S9 [9, 17]: 38 min
Half-life, Human liver S9 [10]: 6.5 min

half-life at 10 μM [7, 18]: > 120 min
half-life at 10 μM [9, 18]: > 120 min
Compound: CC1=C[C@@H]2CN(C(=O)N2O[C@H](F)C(=O)OC(C)C)[C@@H]1C(N)=O [Compound 16]

half-life at 10 μM ([6]; potassium phosphate buffer without S9 fractions): 26 min
half-life at 10 μM ([7]; 0.8 mg/mL protein, 10 μM, 37 °C, read-out: Half-life, Rat intestinal S9): 20 min
half-life at 10 μM ([8]; rat, liver S9 fraction, pH 7.4, 0.8 mg/mL protein): 10 min
half-life at 10 μM ([9]; 0.8 mg/mL protein, 10 μM, 37 °C, read-out: Half-life, Human intestinal S9): 22 min
half-life at 10 μM ([10]; human, liver S9 fraction, pH 7.4, 0.8 mg/mL protein): 9.9 min
Compound: CCOC(=O)[C@H](F)ON1C(=O)N2C[C@H]1C=C(C)[C@H]2C(=O)NCCNS(N)(=O)=O [Compound 19]

Compound: CCOC(=O)[C@H](F)ON1C(=O)N2C[C@H]1C(C)=C[C@H]2C(N)=O [Compound 20]
Half-life, pH 7.4 buffer [6]: 22 min
Half-life, Rat intestinal S9 [7, 17]: 18 min
Half-life, Rat liver S9 [8]: 2.4 min
Half-life, Human intestinal S9 [9, 17]: 6.9 min
Half-life, Human liver S9 [10]: 2.4 min

Compound: CC1=C[C@@H](C(N)=O)N2C[C@@H]1N(O[C@@H](F)C(=O)OC(C)C)C2=O [Compound 21]
Half-life, pH 7.4 buffer [6]: 91 min
Half-life, Rat intestinal S9 [7, 17]: 68 min
Half-life, Rat liver S9 [8]: 3 min
Half-life, Human intestinal S9 [9, 17]: 36 min
Half-life, Human liver S9 [10]: 8.5 min

Compound: CCOC(=O)[C@@H](F)ON1C(=O)N2C[C@H]1C(C)=C[C@H]2C(N)=O [Compound 22, Ethyl (2R)-2-[[(2S,5R)-2-Carbamoyl-4-methyl-7-oxo-1,6-diazabicyclo[3.2.1]oct-3-en-6-yl]oxy]-2-fluoro-acetate]
Half-life, pH 7.4 buffer [6]: 44 min
Half-life, Rat intestinal S9 [7, 17]: 42 min
Half-life, Rat liver S9 [8]: 20 min
Half-life, Human intestinal S9 [9, 17]: 35 min
Half-life, Human liver S9 [10]: 27 min

Compound: CC1=C[C@@H](C(N)=O)N2C[C@@H]1N(O[C@H](F)C(=O)OC(C)C)C2=O [Compound 23, (2R)-Isopropyl 2-(((2S,5R)-2-Carbamoyl-4-methyl-7-oxo-1,6-diazabicyclo[3.2.1]oct-3-en-6-yl)oxy)-2-fluoroacetate]
Half-life, pH 7.4 buffer [6]: 186 min
Half-life, Rat intestinal S9 [7, 17]: 240 min
Half-life, Rat liver S9 [8]: 32 min
Half-life, Human intestinal S9 [9, 17]: 163 min
Half-life, Human liver S9 [10]: 39 min
NOAEL at 14 day ([11]; dog, dogs): 400 mg/kg/day
NOAEL at 14 day ([11]; rat, rats): 500 mg/kg/day
serious adverse events [12]: no serious adverse events reported
tolerability [12]: generally well-tolerated
circulating concentrations of ETX0282 after oral ETX0282 [13]: no circulating concentrations of ETX0282 observed

Compound: CC1=C[C@@H]2CN(C(=O)N2OS(=O)(=O)O)[C@@H]1C(N)=O [Durlobactam, durlobactam]
IC50 ([5]; IC50 10 min, P. aeruginosa AmpC (Class C), 10 min incubation): 0.008 ± 0.003 µM
IC50 ([5]; IC50 60 min, P. aeruginosa AmpC (Class C), 60 min incubation): 0.0058 µM
IC50 ([14]; IC50 10 min, 10 min incubation): 24 ± 6 nM
IC50 ([14]; IC50 60 min, 60 min incubation): 5 nM
MIC [3]: 0.25 µg/mL
MIC [4]: 8 µg/mL
logD (log D): < 0
oral bioavailability F [1]: < 10%

Compound: COCC1=C(C(=O)O)N2C(=O)[C@@H](NC(=O)/C(=N\OC)c3csc(N)n3)[C@H]2SC1 [cefpodoxime]
MIC [15]: > 64 µg/mL

MIC [16]: > 4 µg/mL
Compound: C[C@H]1COc2c(N3CCN(C)CC3)c(F)cc3c(=O)c(C(=O)O)cn1c23 [levofloxacin]

MIC [16]: 0.03 µg/mL
Compound: C[C@@H](O)[C@H]1C(=O)N2C(C(=O)O)=C(S[C@@H]3CN[C@H](C(=O)N(C)C)C3)[C@H](C)[C@H]12 [meropenem]
